Where a name gives a salt, the structure may show the parent alone.

With `CS(=O)(=O)N1CCn2c(nc3c(N)nc4ccccc4c32)C1` (as salt: trifluoroacetate) [Example 5, 9-(Methylsulfonyl)-8,9,10,11-tetrahydropyrazino[1′,2′:1,2]imidazo[4,5-c]quinolin-6-amine trifluoroacetate], the melting point (as a rule, the temperature of the solid-liquid transition) lay within 242 to 243 °C.

`CS(=O)(=O)N1CCCn2c(nc3c(N)nc4ccccc4c32)C1` (as salt: trifluoroacetate) [Example 7, 9-(Methylsulfonyl)-9,10,11,12-tetrahydro-8H-[1,4]diazepino[1′,2′:1,2]imidazo[4,5-c]quinolin-6-amine trifluoroacetate] displayed a melting point of 250 to 250.9 °C.

Regarding `CC(C)(C)[Si](C)(C)OC1CN(S(C)(=O)=O)Cc2nc3c(N)nc4ccccc4c3n2C1` (centres unmarked) [Example 1, 11-{[tert-Butyl(dimethyl)silyl]oxy}-9-(methylsulfonyl)-9,10,11,12-tetrahydro-8H-[1,4]diazepino[1′,2′:1,2]imidazo[4,5-c]quinolin-6-amine], the melting point lay in the range of 256 to 258 °C.

The molecule `CS(=O)(=O)N1Cc2nc3c(N)nc4ccccc4c3n2CC(O)C1` (centres unmarked) [Example 2, 6-Amino-9-(methylsulfonyl)-9,10,11,12-tetrahydro-8H-[1,4]diazepino[1′,2′:1,2]imidazo[4,5-c]quinolin-11-ol] had a melting point of 282 to 283 °C.

For the molecule `CC1(C)Cn2c(nc3c(N)nc4ccccc4c32)CN1S(C)(=O)=O` [Example 3, 10,10-Dimethyl-9-(methylsulfonyl)-8,9,10,11-tetrahydropyrazino[1′,2′:1,2]imidazo[4,5-c]quinolin-6-amine], the melting point was 227 to 228 °C.

In the case of `CC(C)(C)OC(=O)N1CCn2c(nc3c(N)nc4ccccc4c32)C1` [Example 4, tert-Butyl 6-amino-10,11-dihydropyrazino[1′,2′:1,2]imidazo[4,5-c]quinoline-9(8H)-carboxylate], the melting point was 207 °C.

`CC(C)(C)OC(=O)N1CCCn2c(nc3c(N)nc4ccccc4c32)C1` [Example 6, tert-Butyl 6-amino-11,12-dihydro-8H-[1,4]diazepino[1′,2′:1,2]imidazo[4,5-c]quinoline-9(10H)-carboxylate] had a melting point of 213 °C.

`CS(=O)(=O)N1CCCn2c(nc3c(N)nc4ccccc4c32)C1` [Example 8, 9-(Methylsulfonyl)-9,10,11,12-tetrahydro-8H-[1,4]diazepino[1′,2′:1,2]imidazo[4,5-c]quinolin-6-amine] had a melting point of 280 °C.

Molecule `CS(=O)(=O)N1CCCn2c(nc3c(N)nc4c(c32)CCCC4)C1` [Example 363, 9-(Methylsulfonyl)-2,3,4,8,9,10,11,12-octahydro-1H-[1,4]diazepino[1′,2′:1,2]imidazo[4,5c]quinolin-6-amine] showed a melting point of 270 to 272 °C.

`CS(=O)(=O)N1CCCn2c(nc3c(N)nc4cc(Br)ccc4c32)C1` [Example 365, 3-Bromo-9-(methylsulfonyl)-9,10,11,12-tetrahydro-8H-[1,4]diazepino[1′,2′:1,2]imidazo[4,5-c]quinolin-6-amine] displayed a melting point of 303 °C.

With `CS(=O)(=O)N1CCCn2c(nc3c(N)nc4cc(-c5cccnc5)ccc4c32)C1` [Example 366, 9-(Methylsulfonyl)-3-pyridin-3-yl-9,10,11,12-tetrahydro-8H-[1,4]diazepino[1′,2′:1,2]imidazo[4,5-c]quinolin-6-amine], the melting point is 302 °C.

As for `CS(=O)(=O)N1CCn2c(nc3c(N)nc4cc(Br)ccc4c32)C1` [Example 367, 3-Bromo-9-(methylsulfonyl)-8,9,10,11-tetrahydropyrazino[1′,2′:1,2]imidazo[4,5-c]quinolin-6-amine], the melting point lay in the range of 315 to 317 °C.

For the molecule `CS(=O)(=O)N1CCn2c(nc3c(N)nc4cc(OCc5ccccc5)ccc4c32)C1` [Example 368, 3-(Benzyloxy)-9-(methylsulfonyl)-8,9,10,11-tetrahydropyrazino[1′,2′:1,2]imidazo[4,5-c]quinolin-6-amine], the melting point lay in the range of 266 to 268 °C.

With `CS(=O)(=O)N1CCCn2c(nc3c(N)nc4cc(OCc5ccccc5)ccc4c32)C1` [Example 369, 3-(Benzyloxy)-9-(methylsulfonyl)-9,10,11,12-tetrahydro-8H-[1,4]diazepino[1′,2′:1,2]imidazo[4,5-c]quinolin-6-amine], the melting point is 235 to 236 °C.
